In experiment [1] the test system is diffuse large B-cell lymphoma (DLBCL). Conditions: cited from earlier work.
Experiment [2] deals with advanced, treatment-refractory malignancies. Conditions: cited from earlier work.
Experiment [3] has as its system GL261 murine glioma. The experiment can be described thus: Intracranial GL261 glioma model, flow cytometry of tumor and lymph node cell populations. Conditions: day 16 post-implant, 72 h after second treatment. Type of experiment: in vivo, C57BL/6 mice. The protocol: There may be limited endogenous immune response to tumor in C57BL/6 mice intracranially implanted with GL261 murine glioma (FIG. 1A). Mice were intracranially implanted with GL261 murine glioma and then administered PBS (1×) or lysate-pulsed DC vaccine subcutaneously on days 3 and 13 post-tumor implant. On day 16, 72 h after the second treatment, mice were euthanized and spleen, lymph, and brain hemispheres harvested for processing. […] To determine the overall physiologic effect of these cell populations, two groups of GL261 glioma-bearing mice (control and DC vaccine-treated) were maintained and monitored survival.
It was hypothesized that anti-tumor response promoted by the vaccination treatment is mitigated by PD-1/PD-L1 signaling in the tumor microenvironment. […] To evaluate this population, two additional therapies to control and DC-vaccine treatment were examined: anti-PD-1 mAb-treated and combination DC vaccine with anti-PD-1 mAb-treated groups. Spleen, lymph, and brain hemispheres harvested for processing on day 16 post-implant (72 h after second treatment). […] To evaluate therapeutic benefit, mice were implanted, treated, and monitored for survival.
The inhibitory myeloid population was depleted utilizing Ly6C depleting Ab or the clinically-relevant CSF1r inhibitory drug PLX3397. […]
(In general: In flow cytometry, cells or beads pass a laser one at a time.)

Experiment [4] has as its system GL261 murine glioma. The experiment can be described thus: Intracranial GL261 glioma model, survival. Conditions: well-established intracranial GL261 glioma. It is filed as in vivo, C57BL/6 mice.
Description: The inhibitory myeloid population was depleted utilizing Ly6C depleting Ab or the clinically-relevant CSF1r inhibitory drug PLX3397. […] Spleen, lymph, and brain hemispheres harvested for processing on day 16 post-implant (72 h after second treatment).
Bone marrow-derived DC and vaccination. […] Briefly, bone marrow cells were cultured in a humidified atmosphere of 5% CO2 at 37° C. overnight in complete RPMI (Mediatech, Inc. Herndon, Va.) (supplemented with 10% FBS, 1% (v/v) penicillin and streptomycin). […]

This is an account of results in US20150202291A1, “COMBINATIONS OF CHECKPOINT INHIBITORS AND THERAPEUTICS TO TREAT CANCER” (COGNATE BIOSERVICES, INC., priority 2013, published 2015).

As for “CT-011: humanized IgG1 monoclonal antibody against PD-1”, the “activity of natural killer cells” value in experiment [1] (phase II trial finding) is listed as “augments the activity of natural killer cells”. Further, in experiment [1] (phase II, DLBCL after autologous stem cell transplantation, control group 47%), the “subjects progression-free at the end of the follow-up period” value is 70%. Also, the subjects alive in experiment [1] (phase II, DLBCL after autologous stem cell transplantation, control group 62%) was 82%.

As for “BMS-936558: fully human IgG4 monoclonal antibody targeting PD-1”, the tumor regressions entry in experiment [2] (advanced, treatment-refractory malignancies, biweekly administration) is given as “durable partial or complete regressions”. Also, the clinical activity result in experiment [2] (subjects with non-small cell lung cancer (NSCLC)) was “substantial clinical activity”.

Consider `FC(F)(F)c1ccc(CNc2ccc(Cc3c[nH]c4ncc(Cl)cc34)cn2)cn1` [PLX3397], for which, in the experiment with GL261 murine glioma [3], the “activated tumor-infiltrating lymphocytes (CD3+CD8+CD25+)” value is reported as “significant tumor-infiltrating population” and the “inhibitory myeloid population (Ly6C+, PD-L1+) in tumor” value is given as “absence”. In the experiment on GL261 murine glioma [4], the survival entry is on record as “entirely recovered survival benefit”.
